Assays:
[1] = molecular target: Phosphodiesterase 4 (Homo sapiens, UniProt P27815+Q08499+Q07343+Q08493); test: Inhibition of phosphodiesterase 4; format: protein assay
[2] = molecular target: Phosphodiesterase 1 (Homo sapiens, UniProt P54750+Q01064+Q14123); test: Inhibition of Phosphodiesterase 1; format: protein assay, Cavia porcellus
[3] = molecular target: Phosphodiesterase 3 (Homo sapiens, UniProt Q14432+Q13370); test: Inhibition of phosphodiesterase 3; format: protein assay, Canis lupus familiaris

SMILES | IC50 [1] | IC50 [2] | IC50 [3]
Nc1cc2c3c(c1)C(c1ccccc1)=N[C@@H](NC(=O)c1ccncc1)C(=O)N3CC2 | 0.27 µM | – | –
COc1cc2c3c(n1)C(c1ccccc1)=NC(NC(=O)c1cccnc1)C(=O)N3CC2 (single isomer, unassigned) | 73 µM | 28 µM | > 100 µM
COc1cc2c3c(n1)C(c1ccccc1)=NCC(=O)N3CC2 | 23 µM | > 100 µM | > 100 µM
COc1cc2c3c(c1)C(c1ccccc1)=N[C@@H](NC(=O)c1ccncc1)C(=O)N3CC2 | – | 16 µM | –
COc1cc2c3c(n1)C(c1ccccc1)=NC(NC(=O)c1cccnc1)C(=O)N3CC2 (stereo in doubt) | 4.3 µM | 5.8 µM | 31 µM
COc1cc2c3c(c1)C(c1ccccc1)=NCC(=O)N3CC2 | 40 µM | 52 µM | 77 µM
COc1cc2c3c(n1)C(c1ccccc1)=N[C@@H](NC(=O)c1cccnc1)C(=O)N3CC2 | 6.1 µM | 14 µM | 12 µM

— ChEMBL document CHEMBL1147448, “New substituted triaza-benzo[cd]azulen-9-ones as promising phosphodiesterase-4 inhibitors” (Bioorg Med Chem Lett, 2004)
